The NIST ThermoML archive (doi:10.1016/j.fluid.2014.10.004)

Legend:
[1] = xn = mol fraction of the nth substance listed; conditions: 101.3 kPa, Liquid, Sing-around technique in a fixed-path interferometer
[2] = refractive index (Na D-line) (dimensionless); xn = mol fraction of the nth substance listed; conditions: 101.3 kPa, Liquid, Standard Abbe refractometry

C[N+](=O)[O-] [nitromethane] + ClC(Cl)C(Cl)Cl
x2 = 0
Conditions | refractive index, 298.15 K | refractive index, 308.15 K | refractive index, 318.15 K | speed of sound, 298.15 K [m/s] | speed of sound, 308.15 K [m/s] | speed of sound, 318.15 K [m/s]
[1] | – | – | – | 1321.2 | 1281.8 | 1242.5
[2] | 1.37946 | 1.37472 | 1.36996 | – | – | –

C[N+](=O)[O-] [nitromethane] + ClCCCl
Conditions | refractive index, 298.15 K | refractive index, 308.15 K | refractive index, 318.15 K | speed of sound, 298.15 K [m/s] | speed of sound, 308.15 K [m/s] | speed of sound, 318.15 K [m/s]
[1], x2 = 0 | – | – | – | 1321.2 | 1281.8 | 1242.5
[1], x2 = 0.0878 | – | – | – | 1298.2 | 1259 | 1220.1
[1], x2 = 0.1939 | – | – | – | 1279 | 1240.3 | 1201.6
[1], x2 = 0.2938 | – | – | – | 1264 | 1225.5 | 1187
[1], x2 = 0.3998 | – | – | – | 1246.1 | 1207.7 | 1169.4
[1], x2 = 0.5028 | – | – | – | 1236 | 1197.7 | 1159.5
[1], x2 = 0.6154 | – | – | – | 1229 | 1190.8 | 1152.5
[1], x2 = 0.7207 | – | – | – | 1218.7 | 1180.5 | 1142.2
[1], x2 = 0.8326 | – | – | – | 1207.6 | 1169.3 | 1131.1
[1], x2 = 0.9404 | – | – | – | 1201.6 | 1163.3 | 1125
[2], x2 = 0 | 1.37952 | 1.37482 | 1.37009 | – | – | –
[2], x2 = 0.1132 | 1.38846 | 1.38351 | 1.37845 | – | – | –
[2], x2 = 0.2235 | 1.39669 | 1.39148 | 1.38609 | – | – | –
[2], x2 = 0.3249 | 1.40379 | 1.39839 | 1.39284 | – | – | –
[2], x2 = 0.4672 | 1.41318 | 1.40777 | 1.40213 | – | – | –
[2], x2 = 0.5586 | 1.4188 | 1.41343 | 1.40781 | – | – | –
[2], x2 = 0.6264 | 1.42279 | 1.41742 | 1.41184 | – | – | –
[2], x2 = 0.7349 | 1.42888 | 1.42345 | 1.41797 | – | – | –
[2], x2 = 0.857 | 1.43522 | 1.42981 | 1.42424 | – | – | –
[2], x2 = 0.923 | 1.43844 | 1.43304 | 1.42748 | – | – | –
